Read-outs that look alike come from different tables or passages of the source.
Key:
[1] = system: human ERK1 dually phosphorylated at T202/Y204 and ERK2; assay: Phosphorylated ERK1/ERK2 ELISA; format: cell-based; details: phosphorylated ERK in cell lysates after treatment with compounds, sandwich ELISA, cell line not stated
Protocol: An ERK phosphorylation ELISA kit was used to characterize compounds for KRAS-based cell activity. The sandwich ELISA (RnD Systems. Catalog #DYC1018B) measures human ERK1 that is dually phosphorylated at T202/Y204 and ERK2. Cell lysates from cells before and after treatment with compounds were prepared using kit manufacturer protocols.
All reagents were prepared following the kit's protocol. The wells of a 96-well microtiter plate were coated with 100 μL of 8.0 μg/mL of capture antibody in PBS. The plate was sealed and left to incubate overnight at ambient temperature. After incubation, the wells were washed with 400 μL of Wash Buffer for a total of 3 washes. Wells were then blocked by adding 300 μL of Block Buffer to each well and incubated at ambient temperature for 1-2 hours. After removal of the Block Buffer by aspirating and washing, 100 μL of standards and samples were added to the plate in duplicates and incubated for 2 hours at ambient temperature. The aspiration and wash steps were repeated to remove unbound standard and samples and 100 μL of 400 ng/mL detection antibody was applied to each well. After 2 hours at ambient temperature, detection antibody was removed by washing and 100 μL of Streptavidin-HRP was added to each well. Incubation of Streptavidin-HRP was at ambient temperature for 20 minutes, after which Streptavidin-HRP was removed by washing, 100 μL of Substrate Solution was added to each well and incubated for 20 minutes before 50 μL of Stop Solution was added to each well.
The optical density of each well was immediately analyzed at 450 nm with a wavelength correction at 540 nm. The standards were plotted by averaging the optical density for each replicate and fitted with a four-parameter logistic curve fit. Concentrations of phosphorylated ERK in cell lysate samples were determined by extrapolation from the standard curve and then adjusted for any dilution factors.

KRAS (G12C) = target: T1, KRAS (G12C) (Homo sapiens, UniProt P01116, G12C); assay: KRAS G12C Nucleotide Exchange Assay (fixed GTP concentration); format: biochemical
T1 construct: purchased BPS Bioscience 79859
T1 sequence (P01116 1-188 isoform P01116-2 G12C): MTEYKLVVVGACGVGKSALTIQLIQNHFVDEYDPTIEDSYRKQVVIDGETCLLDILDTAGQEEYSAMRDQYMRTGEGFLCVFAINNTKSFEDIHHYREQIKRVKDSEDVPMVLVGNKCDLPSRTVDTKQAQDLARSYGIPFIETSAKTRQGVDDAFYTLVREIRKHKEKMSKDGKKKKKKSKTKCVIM
Protocol: A KRAS (G12C) Nucleotide Exchange Assay kit was used to evaluate compound antagonistic binding. The assay kit (BPS Bioscience. Catalog #79859) utilizes KRAS (G12C) labeled with BODIPY-GDP to determine if compounds can affect the nucleotide exchange (GDP to GTP) in KRAS signaling, Compounds were typically characterized using both protocols: fixed GTP concentrations and fixed inhibitor concentrations.
All reagents were prepared following manufacturer's protocol. 5 μL BODIPY-GDP and 10 μL of KRAS buffer were added to each well. A 3-fold serial dilution of compound in 5% DMSO was prepared. Typically, compounds were tested in the range of 0 μM to 50 μM, but the range could be modified depending on the characterization needs. 5 μL of diluted compound was added to the wells and the plate was centrifuged briefly to ensure all components were mixed before incubation at ambient temperature. After incubation for 2 hours, 10 μM GTP and 25 mM EDTA were mixed at a 1:1 ratio and 5 μL was added to the wells. The plate was then incubated for 1 hour at ambient temperature. After incubation, fluorescence was measured at […].
Data was analyzed by plotting fluorescence vs GTP concentration for control wells and compound wells.

[2] = KRAS (G12C) labeled with BODIPY-GDP, fixed GTP concentration, 2 hours compound incubation, fluorescence readout, read-out: IC50

## C=CC(=O)N1CCN(c2nc(OC[C@@H]3CCCN3CCCCCCNC(=O)CN3CCN(CC(=O)O)CCN(CC(=O)O)CCN(CC(=O)O)CC3)nc3c2CCN(c2cccc4cccc(Cl)c24)C3)C[C@@H]1CC#N [CHL-001, 2-[4,7-bis(carboxymethyl)-10-[2-[6-[(2S)-2-[[7-(8-chloro-1-naphthyl)-4-[(3S)-3-(cyanomethyl)-4-prop-2-enoyl-piperazin-1-yl]-6,8-dihydro-5H-pyrido[3,4-d]pyrimidin-2-yl]oxymethyl]pyrrolidin-1-yl]hexylamino]-2-oxo-ethyl]-1,4,7,10-tetrazacyclododec-1-yl]acetic acid]
[1]
  IC50: ≥ 10000 nM

## C=CC(=O)N1CCN(c2nc(OC[C@@H]3CCCN3CCOCc3cccc(I)c3)nc3c2CCN(c2cccc4cccc(Cl)c24)C3)C[C@@H]1CC#N [Ex-1, 2-[(2S)-4-[7-(8-chloro-1-naphthyl)-2-[[(2S)-1-[2-[(3-iodophenyl)methoxy]ethyl]pyrrolidin-2-yl]methoxy]-6,8-dihydro-5H-pyrido[3,4-d]pyrimidin-4-yl]-1-prop-2-enoyl-piperazin-2-yl]acetonitrile]
[1]; Homo sapiens
  IC50: 100 to 1000 nM

## C=CC(=O)N1CCN(c2nc(OC[C@@H]3CCCN3CCCOCc3cccc(I)c3)nc3c2CCN(c2cccc4cccc(Cl)c24)C3)C[C@@H]1CC#N [Ex-2, 2-[(2S)-4-[7-(8-chloro-1-naphthyl)-2-[[(2S)-1-[3-[(3-iodophenyl)methoxy]propyl]pyrrolidin-2-yl]methoxy]-6,8-dihydro-5H-pyrido[3,4-d]pyrimidin-4-yl]-1-prop-2-enoyl-piperazin-2-yl]acetonitrile]
KRAS (G12C); [2]
  IC50: 1000 to 10000 nM
[1]; Homo sapiens
  IC50: 100 to 1000 nM

## C=CC(=O)N1CCN(c2nc(OC[C@@H]3CCCN3CCCCOCc3cccc(I)c3)nc3c2CCN(c2cccc4cccc(Cl)c24)C3)C[C@@H]1CC#N [Ex-3]
KRAS (G12C); [2]
  IC50: 1000 to 10000 nM
[1]; Homo sapiens
  IC50: 100 to 1000 nM

## C=CC(=O)N1CCN(c2nc(OC[C@@H]3CCCN3CCCOC(=O)c3cccc(I)c3)nc3c2CCN(c2cccc4cccc(Cl)c24)C3)C[C@@H]1CC#N [Ex-4]
[1]; Homo sapiens
  IC50: < 100 nM

## C=CC(=O)N1CCN(c2nc(OC[C@@H]3CCCN3CCCNC(=O)c3cccc(I)c3)nc3c2CCN(c2cccc4cccc(Cl)c24)C3)C[C@@H]1CC#N [Ex-5, N-[3-[(2S)-2-[[7-(8-chloro-1-naphthyl)-4-[(3S)-3-(cyanomethyl)-4-prop-2-enoyl-piperazin-1-yl]-6,8-dihydro-5H-pyrido[3,4-d]pyrimidin-2-yl]oxymethyl]pyrrolidin-1-yl]propyl]-3-iodo-benzamide]
KRAS (G12C); [2]
  IC50: 1000 to 10000 nM
[1]; Homo sapiens
  IC50: 1000 to 10000 nM

## C=CC(=O)N1CCN(c2nc(OC[C@@H]3CCCN3CCCC(=O)OCc3cccc(I)c3)nc3c2CCN(c2cccc4cccc(Cl)c24)C3)C[C@@H]1CC#N [Ex-6, (3-iodophenyl)methyl 4-[(2S)-2-[[7-(8-chloro-1-naphthyl)-4-[(3S)-3-(cyanomethyl)-4-prop-2-enoyl-piperazin-1-yl]-6,8-dihydro-5H-pyrido[3,4-d]pyrimidin-2-yl]oxymethyl]pyrrolidin-1-yl]butanoate]
[1]; Homo sapiens
  IC50: < 100 nM

## C=CC(=O)N1CCN(c2nc(OC[C@@H]3CCCN3CCC(C)(C)OC(=O)c3cccc(I)c3)nc3c2CCN(c2cccc4cccc(Cl)c24)C3)C[C@@H]1CC#N [Ex-8, [3-[(2S)-2-[[7-(8-chloro-1-naphthyl)-4-[(3S)-3-(cyanomethyl)-4-prop-2-enoyl-piperazin-1-yl]-6,8-dihydro-5Hpyrido[3,4-d]pyrimidin-2-yl]oxymethyl]pyrrolidin-1-yl]-1,1-dimethyl-propyl]3-iodobenzoate]
[1]; Homo sapiens
  IC50: 100 to 1000 nM

## C=CC(=O)N1CCN(c2nc(OC[C@@H]3CCCN3C)nc3c2CCN(c2cccc4cccc(I)c24)C3)C[C@@H]1CC#N [Ex-9, 2-[(2S)-4-[7-(8-iodo-1-naphthyl)-2-[[(2S)-1-methylpyrrolidin-2-yl]methoxy]-6,8-dihydro-5H-pyrido[3,4-d]pyrimidin-4-yl]-1-prop-2-enoyl-piperazin-2-yl]acetonitrile]
KRAS (G12C); [2]
  IC50: 1000 to 10000 nM
[1]; Homo sapiens
  IC50: < 100 nM

## C=CC(=O)N1CCN(c2nc(OC[C@@H]3CCCN3CCC(=O)O)nc3c2CCN(c2cccc4cccc(I)c24)C3)C[C@@H]1CC#N [Ex-10]
[1]; Homo sapiens
  IC50: < 100 nM

## C=CC(=O)N1CCN(c2nc(OC[C@@H]3CCCN3CCCC(=O)O)nc3c2CCN(c2cccc4cccc(I)c24)C3)C[C@@H]1CC#N [Ex-11, 4-[(2S)-2-[[4-[(3S)-3-(cyanomethyl)-4-prop-2-enoyl-piperazin-1-yl]-7-(8-iodo-1-naphthyl)-6,8-dihydro-5H-pyrido(3,4-d]pyrimidin-2-yl]oxymethyl]pyrrolidin-1-yl]butanoic acid]
[1]; Homo sapiens
  IC50: < 100 nM

## C=CC(=O)N1CCN(c2nc(OC[C@@H]3CCCN3CCC(C)(C)C(=O)O)nc3c2CCN(c2cccc4cccc(I)c24)C3)C[C@@H]1CC#N [Ex-12, 4-[(2S)-2-[[4-[(3S)-3-(cyanomethyl)-4-pop-2-enoyl-piperazin-1-yl]-7-(8-iodo-1-naphthyl)-6,8-dihydro-5H-pyrido[3,4-d]pyrimidin-2-yl]oxymethyl]pyrrolidin-1-yl]-2,2-dimethyl-butanoic acid]
[1]; Homo sapiens
  IC50: < 100 nM

## C=CC(=O)N1CCN(c2nc(OC[C@@H]3CCCN3CC(O)CO)nc3c2CCN(c2cccc4cccc(I)c24)C3)C[C@@H]1CC#N (some centres unmarked) [Ex-13]
[1]; Homo sapiens
  IC50: < 100 nM

## C=CC(=O)N1CCN(c2nc(OC[C@@H]3CCCN3CC(CO)CO)nc3c2CCN(c2cccc4cccc(I)c24)C3)C[C@@H]1CC#N [Ex-14, 2-[(2S)-4-[2-[I(2S)-1-[3-hydroxy-2-(hydroxymethyl)propylpyrrolidin-2-yl]methoxy]-7-(8-iodo-1-naphthyl)-6,8-dihydro-5H-pyrido(3,4-d]pyrimidin-4-yl]-1-prop-2-enoyl-piperazin-2-yl]acetonitrile]
[1]; Homo sapiens
  IC50: < 100 nM

## C=CC(=O)N1CCN(c2nc(OC[C@@H]3CCCN3CCCCCCNC(=O)CN3CCN4CCN5CCN(CC3)CC(=O)[O][Lu]([O]C(=O)C4)[O]C(=O)C5)nc3c2CCN(c2cccc4cccc(Cl)c24)C3)C[C@@H]1CC#N [Lu-CHL-001, N-[6-[(2S)-2-[[7-(8-chloro-1-naphthyl)-4-[(3 S)-3-(cyanomethyl)-4-prop-2-enoyl-piperazin-1-yl]-6,8-dihydro-5H-pyrido[3,4-d]pyrimidin-2-yl]oxymethyl]pyrrolidin-1-yl]hexyl]-2-(3,16,19-trioxo-2,17,18-trioxa-5,8,11,14-tetraza-1λ3-lutetatricyclo[9,6,3,25,14]docosan-8-yl)acetamide]
KRAS (G12C)
  IC50: 1000 to 10000 nM
[1]
  IC50: 1000 to 10000 nM

## C=CC(=O)N1CCN(c2nc(OC[C@@H]3CCCN3CCNC(=O)CN3CCN4CCN5CCN(CC3)CC(=O)[O][Lu]([O]C(=O)C4)[O]C(=O)C5)nc3c2CCN(c2cccc4cccc(Cl)c24)C3)C[C@@H]1CC#N [Lu-CHL-002, N-[2-[(2S)-2-[[7-(8-chloro-1-naphthyl)-4-[(3S)-3-(cyanomethyl)-4-prop-2-enoyl-piperazin-1-yl]-6,8-dihydro-5H-pyrido[3,4-d]pyrimidin-2-yl]oxymethyl]pyrrolidin-1-yl]ethyl]-2-(3,16,19-trioxo-2,17,18-trioxa-5.8,11,14-tetraza-1λ3-lutetatricyclo[9.6.3,25,14]docosan-8-yl)acetamide]
KRAS (G12C); [2]
  IC50: 1000 to 10000 nM
[1]
  IC50: 1000 to 10000 nM

## N-[4-[(2S)-2-[[7-(8-chloro-1-naphthyl)-4-[(3S)-3-(cyanomethyl)-4-prop-2-enoyl-piperazin-1-yl]-6,8-dihydro-5H-pyrido[3,4-d]pyrimidin-2yl]oxymethyl]pyrrolidin-1-yl]butyL]1J-2-[(6S,9S, 12S, 21 S)-6,9,12,21-tetraethyl-3,16,19-trioxo-2,17,18-trioxa-5,8,11,14-tetraza-17,3-lutetatricyclo[9.6.3,25,14]docosan-8-yl]acetamide [Lu-CHL-005]
[1]
  IC50: 100 to 1000 nM
